Laboratory results as given in patent US11351130B2, “Prevention and reversal of inflammation induced DNA damage” (Indiana University Research and Technology Corporation, priority 2017, dated 2022).

Columns and labels:
[1] = test system: sensory neurons in culture; format: cell-based, rat
Procedure: Primary cultures of sensory neurons were harvested and maintained as previously described (Vasko et al., 2005). Briefly, adult male Sprague-Dawley rats (150-175 g; Harlan, Indianapolis, Ind.) were euthanized by CO2 asphyxiation and dorsal root ganglia (DRG) dissected from all spinal levels, transferred to into a collagenase solution (1 mg/ml), incubated for 1 hour at 37° C., then dissociated by mechanical agitation. Approximately 30,000 cells or 60,000 cells were plated into each well of 12-well or 6-well culture plates, respectively. All culture dishes were precoated with poly-D-lysine and laminin. Cells were maintained in F-12 media supplemented with 10% horse serum, 2 mM glutamine, 100 μg/ml Normocin™, 50 μg/ml penicillin, 50 μg/ml streptomycin, 50 μM 5-fluoro-2′-deoxyuridine (Invitrogen), 150 μM uridine, and 30 ng/ml of NGF in 3% CO2 at 37° C. Growth medium was changed every other day. Experiments were performed after cells were maintained in culture for 12-14 days.
For release experiments, cell cultures were washed with HEPES buffer consisting of (in mM) 25 HEPES, 135 NaCl, 3.5 KCl, 2.5 CaCl2, 1 MgCl2, 3.3 D-glucose, and 0.1% bovine serum albumin, pH 7.4 and maintained at 37° C. They then were incubated for successive 10-minute intervals with 0.4 ml of HEPES buffer alone (basal release), with buffer containing 30 nM capsaicin, then with buffer alone (to assess return to basal release). After each incubation, the buffer was removed and the amount of immunoreactive calcitonin-gene related peptide (CGRP) in each sample was measured using radioimmunoassay (RIA) as previously described (Chen et al., 1996). At the end of the release protocol, CGRP is extracted from the cultures and total content measured using RIA.

[2] = test system: neuronal cultures derived from DRG; assay: pH2A.X immunoblotting in DRG neuronal cultures (Example 1); format: cell-based, rat
Procedure: Dorsal root ganglia (DRG) were dissected from all spinal levels of adult male (150-175 g) Sprague-Dawley rats (Envigo, Indianapolis, Ind.) and the cells were dissociated as previously described (Kelley et al., 2014). Briefly, the rats were euthanized by CO2 asphyxiation. DRGs were transferred into collagenase solution (1 mg/ml) and incubated for 1 hour at 37° C. The digested DRGs were then rinsed with growth medium, centrifuged and dissociated by mechanical agitation. Approximately 30,000 cells were plated into each well of 12-well culture plates. All culture dishes were precoated with poly-D-lysine and laminin. Cells were maintained in F-12 media supplemented with 10% horse serum, 2 mM glutamine, 100 μg/ml Normocin, 50 μg/ml penicillin, 50 μg/ml streptomycin, 50 μM 5-fluoro-2′-deoxyuridine, 150 μM uridine, and 30 ng/ml of NGF in 3% CO2 at 37° C. Growth medium was changed every other day.
Small interfering RNAs to APE1 (APE1siRNA) and scrambled siRNA (SCsiRNA) controls were used to decrease APE1 protein expression in sensory neuronal cell cultures and as controls, respectively, as described previously (Vasko et al., 2005, Jiang et al., 2008a). On day 3 in culture, the growth media was replaced with 0.5 ml of Opti-MEM 1 media containing 100 nM of APE1siRNA (5′-[…]-3′ (SEQ ID NO:1)) or SCsiRNA (5′-[…]-3′(SEQ ID NO:2)); (Vasko et al., 2005)) and 10 μl of the transfecting reagent, Neuroporter. On the next day, 0.5 ml of the growth media without antibiotics was added to each well, and after an additional 24 hours the media containing siRNA was replaced with normal growth media.
Lentiviral constructs containing (1) the CMV promoter, HA-tagged APE1, IRES, and enhanced green fluorescent protein (EGFP); or (2) CMV, IRES, and EGFP were developed. DNA sequencing confirmed the constructs in the pLenti6-R4R2-V5 plasmid containing WT-, C65-, or 226+177-APE1-IRES-EGFP. For lentiviral infections, DRG cells were cultured 5 days before 150 pfu/cell of the lentivirus was added to the media. Two days later, the virus was removed and the cells grown an additional 5 days in regular media.
Tissues or cells were harvested, lysed in RIPA buffer (Santa Cruz Biotechnology; Santa Cruz, Calif., USA), sonicated, and cleared of cellular debris by centrifuging at 4000 RPM for 2 minutes. Protein was quantified using Lowry assay, and electrophoresed in a 12% SDS-polyacrylamide gel. After electrophoresis, proteins were transferred to a PVDF membrane, and blocked with Tris-buffered saline containing 0.1% Tween-20 (TBST) and 5% nonfat dry milk for 1 hour at room temperature while gently agitating. Mouse monoclonal antihuman Ape1 antibodies (1:1000), mouse monoclonal anti-phospho H2AX antibodies (1:1000), mouse monoclonal anti-vinculin antibody (1:1000), and anti-Hemagglutinin (HA) antibody were added to the blocking solution and incubated for 2 hours at room temperature while gently agitating. Antibody binding was detected following appropriate secondary antibody methods using chemiluminescence. The density of the bands was measured using Quantity One software from Bio-Rad (Hercules, Calif.) and data expressed as density normalized to vinculin.

## CCCCCCCCC/C(=C\C1=C(C)C(=O)C(OC)=C(OC)C1=O)C(=O)O [APX3330]
[1]; 20 μM for 48 hours prior to and throughout exposure to 10 μM cisplatin
  effect on cisplatin-induced reduction in capsaicin-evoked CGRP release: abolished the reduction in release
[1]; 72 hours, E3330 20 μM, APX2009 10 or 20 μM, compared to untreated cells
  basal (resting) release or release of CGRP stimulated by 30 nM capsaicin, drug alone: no significant change
[2]; E3330 20 μM pretreatment, LPS 3 μg/ml 24 hours, SCsiRNA- and APE1siRNA-treated cultures
  effect on LPS induction of pH2A.X: prevented the induction of pH2A.X
[2]; E3330, SCsiRNA or APE1siRNA cultures, MCP-1 0.3 μg/ml 24 hours
  effect on MCP-1 induction of pH2A.X: prevented the induction of pH2A.X by MCP-1
